{
  "source": "patent US20150284399A1",
  "about": "“PROCESSES FOR THE PREPARATION OF S1P1 RECEPTOR MODULATORS AND CRYSTALLINE FORMS THEREOF” (Arena Pharmaceuticals, Inc., priority 2010, published 2015)",
  "key": {"[1]": {"conditions": "attributed to agonism of the S1P3 receptor; cited from earlier work"}, "human islet cells": {"system": "human islet cells", "conditions": "cited from earlier work"}, "[2]": {"conditions": "unlike cyclosporin A, FK506 and RAD; cited from earlier work"}, "[3]": {"assay": "Dynamic moisture sorption (DMS)", "type": "physicochemical", "conditions": "crystalline form", "protocol": "Samples are prepared for dynamic moisture-sorption analysis by placing ˜5 mg to ˜20 mg of compound in a tarred sample holder on the VTI balance. The instrument is a dynamic moisture-sorption analyzer, VTI Corporation, SGA-100. A drying step is run at 40° C. and ˜1% RH for 1 h. The isotherm temperature is 25° C. A % weight change over 10 min (5 weight readings) of dm/dt=0.010 or 2 h, whichever occurs first, is required before continuing to the next step. The water content of the sample equilibrated as described above was determined from 30% RH to 90% RH and then back down to 10% RH."}, "keratinocytes": {"system": "keratinocytes", "conditions": "Kim et al. 2004; cited from earlier work"}, "S1P4 receptor": {"biological_target": "T1, S1P4 receptor (Homo sapiens, UniProt O95977)", "T1 sequence (O95977 1-384)": "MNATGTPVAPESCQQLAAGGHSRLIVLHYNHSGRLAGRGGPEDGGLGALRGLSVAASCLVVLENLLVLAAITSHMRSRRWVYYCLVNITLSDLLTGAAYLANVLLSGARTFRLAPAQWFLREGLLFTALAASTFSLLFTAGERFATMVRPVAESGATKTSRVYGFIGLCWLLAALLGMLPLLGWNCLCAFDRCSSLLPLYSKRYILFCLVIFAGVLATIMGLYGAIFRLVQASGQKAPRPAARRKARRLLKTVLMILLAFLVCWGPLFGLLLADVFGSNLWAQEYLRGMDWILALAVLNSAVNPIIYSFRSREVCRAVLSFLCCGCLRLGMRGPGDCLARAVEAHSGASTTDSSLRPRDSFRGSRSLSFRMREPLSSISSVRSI", "conditions": "Chiba 2005; cited from earlier work"}, "S1P5 receptor": {"biological_target": "S1P5 receptor (Homo sapiens, UniProt Q9H228)", "sequence (Q9H228 whole entry)": "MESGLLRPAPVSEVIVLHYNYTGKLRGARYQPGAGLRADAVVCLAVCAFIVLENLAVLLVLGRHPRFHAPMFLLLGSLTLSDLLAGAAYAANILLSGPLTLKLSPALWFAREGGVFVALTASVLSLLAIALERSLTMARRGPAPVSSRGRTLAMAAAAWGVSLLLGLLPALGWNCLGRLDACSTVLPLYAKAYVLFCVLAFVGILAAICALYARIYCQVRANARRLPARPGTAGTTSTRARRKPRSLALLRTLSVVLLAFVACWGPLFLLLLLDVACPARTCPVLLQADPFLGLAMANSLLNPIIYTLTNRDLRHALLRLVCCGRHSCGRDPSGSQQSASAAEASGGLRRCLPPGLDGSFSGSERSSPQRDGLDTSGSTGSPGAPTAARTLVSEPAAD", "conditions": "Chiba 2005; cited from earlier work"}, "S1P2 receptor": {"biological_target": "S1P2 receptor (Homo sapiens, UniProt O95136)", "sequence (O95136 whole entry)": "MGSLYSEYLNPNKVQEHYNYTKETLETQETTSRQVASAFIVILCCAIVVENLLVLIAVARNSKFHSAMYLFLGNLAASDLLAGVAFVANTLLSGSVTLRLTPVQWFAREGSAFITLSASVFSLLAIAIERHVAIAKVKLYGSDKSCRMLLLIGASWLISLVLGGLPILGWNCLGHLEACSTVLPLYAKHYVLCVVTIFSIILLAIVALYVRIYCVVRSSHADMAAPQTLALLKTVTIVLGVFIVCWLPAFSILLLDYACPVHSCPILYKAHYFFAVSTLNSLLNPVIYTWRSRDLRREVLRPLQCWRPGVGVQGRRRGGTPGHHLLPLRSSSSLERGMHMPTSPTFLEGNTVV", "conditions": "Chiba 2005; cited from earlier work"}, "Female C57BL/6 mice": {"system": "Female C57BL/6 mice", "assay": "MOG-induced experimental autoimmune encephalomyelitis (EAE) in mice", "type": "in vivo, mouse", "conditions": "oral, once a day from day 3 until day 21; 0.1, 0.3 and 1.0 mg/kg; vs vehicle; FIG. 17"}, "Male BALB/c mice": {"system": "Male BALB/c mice", "assay": "Mouse Peripheral Lymphocyte Lowering (PLL) assay", "type": "in vivo", "conditions": "0.300 mg/kg oral dose in 0.5% methyl cellulose in water; 5 hours post-dose; vs vehicle; FIG. 15", "protocol": "Male BALB/c mice (Charles River Laboratories, Wilmington, Mass.) were housed four per cage and maintained in a humidity-controlled (40 to 60%) and temperature-controlled (68 to 72° F.) facility on a 12 h: 12 h light/dark cycle (lights on at 6:30 am) with free access to food (Harlan Teklad, Orange, Calif., Rodent Diet 8604) and water. Mice were allowed (approximately) one week of habituation to the animal facility before testing.\nMice were given a 0.300 mg/kg oral dose of (R)-2-(9-chloro-7-(4-isopropoxy-3-(trifluoromethyl)benzyloxy)-2,3-dihydro-1H-pyrrolo[1,2-a]indol-1-yl)acetic acid L-lysine salt or dosing vehicle (0.5% methyl cellulose in water) in a total volume of 10 mL/kg. Peripheral blood samples were collected at 5 hours post-dose. The mice were anesthetized with isoflurane and blood was collected via cardiac puncture. A complete cell count (CBC), including lymphocyte count, was obtained using a CELL-DYN® 3700 (Abbott Laboratories, Abbott Park, Ill.) instrument. Results are presented in FIG. 15, in which peripheral blood lymphocyte (PBL) count is shown for the 5 hour group."}, "vasculature": {"system": "vasculature", "conditions": "Bolick et al. 2005; cited from earlier work"}, "[4]": {"system": "type I diabetic vascular endothelium", "conditions": "Whetzel et al. 2006; cited from earlier work"}, "[5]": {"conditions": "organ transplantation; cited from earlier work"}, "[6]": {"system": "rat cardiac allograft model", "conditions": "cited from earlier work"}, "[7]": {"system": "rat renal allograft model", "conditions": "combination with mycophenolate mofetil (MMF); cited from earlier work"}, "rat skin allograft model": {"system": "rat skin allograft model", "conditions": "monotherapy; cited from earlier work"}, "[8]": {"system": "rat model for autoimmune myocarditis", "conditions": "cited from earlier work"}},
  "note": "Where two headings read alike, the source gives them in different places.",
  "data": [
    {"compound": "CCCCCCCCc1ccc(CCC(N)(CO)CO)cc1", "note": "[FTY720, fingolimod]", "values": [
      {"measurement": "adverse event in clinical trials", "setting": "[1]", "result": "transient asymptomatic bradycardia"},
      {"measurement": "effects on human islet function", "setting": "human islet cells", "result": "no detrimental effects on human islet function"},
      {"measurement": "general immunosuppression while prolonging graft survival", "setting": "[2]", "result": "without inducing general immunosuppression"}
    ]},
    {"compound": "CC(C)Oc1ccc(COc2ccc3c(c2)c(Cl)c2n3CC[C@@H]2CC(=O)O)cc1C(F)(F)F.NCCN.O", "note": "[(R)-2-(9-chloro-7-(4-isopropoxy-3-(trifluoromethyl)benzyloxy)-2,3-dihydro-1H-pyrrolo[1,2-a]indol-1-yl)acetic acid ethylenediamine salt hydrate]", "values": [
      {"measurement": "DMS weight gain after adsorption cycle to about 90% RH followed by desorption cycle back to about 10% RH", "setting": "[3]", "result": "25° C.; gains less than about 1.5% weight after undergoing"}
    ]},
    {"compound": "CCCCCCCCCCCCC/C=C/[C@@H](O)[C@@H](N)COP(=O)(O)O", "note": "[Compound S1P, sphingosine-1-phosphate]", "values": [
      {"measurement": "keratinocyte proliferation", "setting": "keratinocytes", "result": "inhibits keratinocyte proliferation"}
    ]},
    {"compound": "CCCCCCCCc1ccc(CCC(N)(CO)COP(=O)(O)O)cc1", "note": "(centres unmarked) [phosphorylated derivative]", "values": [
      {"measurement": "agonist activity on S1P4 receptor", "setting": "S1P4 receptor", "result": "agonist"},
      {"measurement": "agonist activity on S1P5 receptor", "setting": "S1P5 receptor", "result": "agonist"},
      {"measurement": "agonist activity on S1P2 receptor", "setting": "S1P2 receptor", "result": "not the S1P2 receptor"}
    ]},
    {"compound": "(R)-2-(9-Chloro-7-(4-isopropoxy-3-(trifluoromethyl)benzyloxy)-2,3-dihydro-1H-pyrrolo[1,2-a]indol-1-yl)acetic acid L-lysine salt", "values": [
      {"measurement": "reduction of the severity of disease symptoms (clinical score) in EAE", "setting": "Female C57BL/6 mice", "result": "exhibits therapeutic efficacy in EAE"},
      {"measurement": "peripheral blood lymphocyte (PBL) lowering (lymphopenia)", "setting": "Male BALB/c mice", "result": "exhibited activity for inducing PBL lowering (lymphopenia)"},
      {"measurement": "DMS weight gain at a 90% RH hold", "setting": "[3]; 90% RH hold at 25° C.", "result": "FIG. 6: gains less than about 2.2% weight at a 90% RH hold at"},
      {"measurement": "DMS weight gain after adsorption cycle to about 90% RH followed by desorption cycle back to about 10% RH", "setting": "[3]", "result": "25° C.; gains less than about 0.25% weight after undergoing a"}
    ]},
    {"compound": "FC(F)(F)c1cccc(-c2noc(-c3cc(-c4ccccc4)c(C(F)(F)F)s3)n2)c1", "note": "[SEW2871]", "values": [
      {"measurement": "protection against TNFα-mediated monocyte/endothelial interactions", "setting": "vasculature", "result": "protects the vasculature against TNFα-mediated monocyte/endothelial interactions"},
      {"measurement": "proinflammatory monocyte/endothelial interactions", "setting": "[4]", "result": "prevents proinflammatory monocyte/endothelial interactions"}
    ]},
    {"compound": "C=CC[C@@H]1/C=C(\\C)C[C@H](C)C[C@H](OC)[C@H]2O[C@@](O)(C(=O)C(=O)N3CCCC[C@H]3C(=O)O[C@H](/C(C)=C/[C@@H]3CC[C@@H](O)[C@H](OC)C3)[C@H](C)[C@@H](O)CC1=O)[C@H](C)C[C@@H]2OC", "note": "[FK506]", "values": [
      {"measurement": "undesirable side effects", "setting": "[5]", "result": "nephrotoxicity, neurotoxicity, β-cell toxicity and gastrointestinal discomfort"}
    ]},
    {"compound": "O=C(O)CCNCc1ccc2sc(-c3ccc(-c4ccccc4)c(C(F)(F)F)c3)cc2c1", "note": "[AUY954]", "values": [
      {"measurement": "prolonging allograft survival", "setting": "[6]; combination with a subtherapeutic dose of RAD001", "result": "can prolong rat cardiac allograft survival"}
    ]},
    {"compound": "NC(CO)(CO)CCc1ccc(Sc2cccc(OCc3ccccc3)c2)cc1Cl", "note": "[KRP-203]", "values": [
      {"measurement": "prolonging allograft survival", "setting": "[7]", "result": "therapeutic efficacy in combination with mycophenolate mofetil"},
      {"measurement": "prolonging allograft survival", "setting": "[6]; combination with cyclosporin A", "result": "synergistic combination with cyclosporin A"},
      {"measurement": "prolonging allograft survival", "setting": "[6]; combination with mycophenolate mofetil (MMF)", "result": "therapeutic efficacy in combination with mycophenolate mofetil"},
      {"measurement": "prolonging allograft survival", "setting": "[6]; monotherapy", "result": "therapeutic efficacy for prolonging allograft survival"},
      {"measurement": "prolonging allograft survival", "setting": "rat skin allograft model", "result": "therapeutic efficacy for prolonging allograft survival"},
      {"measurement": "therapeutic efficacy", "setting": "[8]", "result": "therapeutic efficacy"}
    ]},
    {"compound": "CC(C)Oc1ccc(COc2ccc3c(c2)c(Cl)c2n3CC[C@@H]2CC(=O)[O-])cc1C(F)(F)F.O.[Na+]", "note": "[(R)-2-(9-chloro-7-(4-isopropoxy-3-(trifluoromethyl)benzyloxy)-2,3-dihydro-1H-pyrrolo[1,2-a]indol-1-yl)acetic acid sodium salt hydrate]", "values": [
      {"measurement": "DMS weight gain at about 90% relative humidity", "setting": "[3]; from about 30% RH to about 90% RH at 25° C.", "result": "FIG. 9: gains about 2.5% weight at about 90% relative humidity"}
    ]}
  ]
}
